Format in all cases: in vivo
Series [1] concerns Echinochloa oryzacola Vasing. Put plainly: Test Example 1: herbicidal activity, application before weed generation in submerged conditions (symbol A). The following applies: application herbicide amount 320 g/ha. In a few lines:
(§1)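 Paddy pre-emergence test. Formulated emulsion, water-diluted to a predetermined rate, is applied to floodwater on sowing day; rice transplanted at 2.5 leaves. Effect read at 3 weeks on a 0–5 herbicidal-ratio scale.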

The next series deals with Monochoria vaginalis. Kind of series: Test Example 1: herbicidal activity, application before weed generation in submerged conditions (symbol C). The following applies: application herbicide amount 320 g/ha. The method, boiled down:
as §1

Series [2] concerns directly sowed rice plant. Kind of series: Test Example 3: effect on crop by foliage application, Wagner pot (symbol b). As to conditions: application herbicide amount 320 g/ha, Table 24. The method, boiled down:
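Plants are raised from seed in flooded paddy conditions: water stands 0.1–0.5 cm over alluvial soil, and the pot is kept in a greenhouse at 25–30 °C. Species sown are barnyardgrass (E. crus-galli var. crus-galli), Leptochloa chinensis, Cyperus difformis and rice.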

Another series deals with Digitaria ciliaris. Put plainly: Test Example 4: herbicidal effect by soil treatment (symbol F). As to conditions: application herbicide amount 320 g/ha. In a few lines: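 Seeds were sown in sterilized diluvial soil, covered with about 1.5 cm of soil, and the soil surface was sprayed with a water-diluted emulsion of the compound at a predetermined rate. Plants grew in a greenhouse at 25° C. to 30° C.; effects were scored visually 3 weeks after application.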

Series [3] relates to soybean. Put plainly: Test Example 4: effect on crop by soil treatment (symbol d). The following applies: application herbicide amount 320 g/ha. The method, boiled down: (§2)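 Steps: fill box with sterilized diluvial soil; sow seed spot-like; cover with ~1.5 cm soil; grow in greenhouse (25° C. to 30° C.).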
The test system of series [4] is wheat. Kind of series: Test Example 4: effect on crop by soil treatment (symbol e). The following applies: application herbicide amount 320 g/ha. The method, boiled down: as §2
In another series the test system is rapeseed. Kind of series: Test Example 4: effect on crop by soil treatment (symbol g). As to conditions: application herbicide amount 320 g/ha. In a few lines: as §2
Series [5] has as its system Echinochloa crus-galli var. crus-galli. Put plainly: Test Example 5: herbicidal effect by foliage application, plastic box (symbol H). The following applies: 320 g/ha, 3 weeks after application. In a few lines:
(§3)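 Effect is rated 3 weeks after a foliar spray of water-diluted emulsion concentrate at a predetermined herbicide amount. Plants had grown 14 days in a 25° C. to 30° C. greenhouse from seed in sterilized diluvial soil.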

The next series deals with Lolium multiflorum Lam. Kind of series: Test Example 5: herbicidal effect by foliage application, plastic box (symbol K). As to conditions: 320 g/ha, 3 weeks after application. In a few lines: as §3
The subject of the next series is Amaranthus retroflexus. Kind of series: Test Example 5: herbicidal effect by foliage application, plastic box (symbol N). As to conditions: 320 g/ha, 3 weeks after application. The method, boiled down: as §3
In a further series the test system is Chenopodium album. Kind of series: Test Example 5: herbicidal effect by foliage application, plastic box (symbol O). As to conditions: 320 g/ha, 3 weeks after application. In a few lines:
as §3

Another series concerns Galium spurium. Kind of series: Test Example 5: herbicidal effect by foliage application, plastic box (symbol Q). The following applies: 320 g/ha, 3 weeks after application. The method, boiled down: as §3
In a further series the test system is Veronica persica. Kind of series: Test Example 5: herbicidal effect by foliage application, plastic box (symbol R). The following applies: 320 g/ha, 3 weeks after application. The method, boiled down: as §3
The test system of series [6] is soybean. Kind of series: Test Example 5: effect on crop by foliage application, plastic box (symbol d). As to conditions: 320 g/ha, 3 weeks after application. The method, boiled down:
(§4)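 Soil: sterilized diluvial. Container: plastic box, 21 × 13 cm, 7 cm deep. Sowing: spot-like, ~1.5 cm cover. Growth: greenhouse, 25° C. to 30° C.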

For series [7], the system named is wheat. Kind of series: Test Example 5: effect on crop by foliage application, plastic box (symbol e). The following applies: 320 g/ha, 3 weeks after application. In a few lines:
as §4

The next series deals with beet. Kind of series: Test Example 5: effect on crop by foliage application, plastic box (symbol f). As to conditions: 320 g/ha, 3 weeks after application. The method, boiled down:
as §4

On to `CCC(CC1CC(O)=C(c2c(C)cc(C)cc2OC)C1=O)=NOC` (mixture of isomers) [13-003], for which the “A (Echinochloa oryzacola Vasing.) herbicidal effect grade” value in series [1] is listed as 5 (Herbicidal ratio of 90% or more (almost completely withered)). The “C (Monochoria vaginalis) herbicidal effect grade” value in the series on Monochoria vaginalis is on record as 0 (Herbicidal ratio of 5% or lower (almost no effect)). In addition, the “b (directly sowed rice plant) effect on crop grade” value in series [2] is reported as 5 (Herbicidal ratio of 90% or more (almost completely withered)). The “F: Digitaria ciliaris, herbicidal effect grade” value in the series on Digitaria ciliaris is given as 5 (Herbicidal ratio of 90% or more (almost completely withered)). Moreover, the “d: soybean, effect on crop grade” value with soybean [3] is 0 (Herbicidal ratio of 5% or lower (almost no effect)); in the series with soybean [6] it was 3 (Herbicidal ratio of 40% or higher and lower than 70%). The results for the “e: wheat, effect on crop grade” value with wheat [4] and in the series on wheat [7] were 0 (Herbicidal ratio of 5% or lower (almost no effect)) and 5 (Herbicidal ratio of 90% or more (almost completely withered)), respectively. Further, the “g: rapeseed, effect on crop grade” value in the series with rapeseed is 3 (Herbicidal ratio of 40% or higher and lower than 70%). Also, the “H: Echinochloa crus-galli var. crus-galli, herbicidal effect grade” value in [5] is recorded as 5 (Herbicidal ratio of 90% or more (almost completely withered)). The “K: Lolium multiflorum Lam., herbicidal effect grade” value in the series on Lolium multiflorum Lam. is 5 (Herbicidal ratio of 90% or more (almost completely withered)). Further, the “N: Amaranthus retroflexus, herbicidal effect grade” value with Amaranthus retroflexus was 0 (Herbicidal ratio of 5% or lower (almost no effect)). In the series on Chenopodium album, the “O: Chenopodium album, herbicidal effect grade” value was 0 (Herbicidal ratio of 5% or lower (almost no effect)). Also, the “Q: Galium spurium, herbicidal effect grade” value in the series with Galium spurium was 3 (Herbicidal ratio of 40% or higher and lower than 70%). Further, the “R: Veronica persica, herbicidal effect grade” value in the series on Veronica persica is 1 (Herbicidal ratio of 5% or higher and lower than 20%). In addition, the “f: beet, effect on crop grade” value in the series on beet is reported as 0 (Herbicidal ratio of 5% or lower (almost no effect)).

Turning to `Cc1cc(Br)cc(C)c1C1=C(O)CC(CC(=O)C(C)C)C1=O` (racemic) [10-003], in series [1], the “A (Echinochloa oryzacola Vasing.) herbicidal effect grade” value is 1 (Herbicidal ratio of 5% or higher and lower than 20%). In addition, the “C (Monochoria vaginalis) herbicidal effect grade” value in the series with Monochoria vaginalis is 0 (Herbicidal ratio of 5% or lower (almost no effect)). Further, the “b (directly sowed rice plant) effect on crop grade” value in [2] is reported as 5 (Herbicidal ratio of 90% or more (almost completely withered)). Further, the “Herbicidal effect grade, F: Digitaria ciliaris” value with Digitaria ciliaris is listed as 0 (Herbicidal ratio of 5% or lower (almost no effect)). The “Effect on crop grade, d: soybean” value with soybean [3] is reported as 0 (Herbicidal ratio of 5% or lower (almost no effect)). Further, the “Effect on crop grade, e: wheat” value in the series on wheat [4] is 0 (Herbicidal ratio of 5% or lower (almost no effect)). Also, the “Effect on crop grade, g: rapeseed” value in the series with rapeseed is reported as 0 (Herbicidal ratio of 5% or lower (almost no effect)). In addition, the “H: Echinochloa crus-galli var. crus-galli, herbicidal effect grade” value in series [5] is given as 5 (Herbicidal ratio of 90% or more (almost completely withered)). Also, the “K: Lolium multiflorum Lam., herbicidal effect grade” value with Lolium multiflorum Lam. is 4 (Herbicidal ratio of 70% or higher and lower than 90%). Besides, the “N: Amaranthus retroflexus, herbicidal effect grade” value in the series on Amaranthus retroflexus is 0 (Herbicidal ratio of 5% or lower (almost no effect)). Further, the “O: Chenopodium album, herbicidal effect grade” value with Chenopodium album is 0 (Herbicidal ratio of 5% or lower (almost no effect)). Besides, the “Q: Galium spurium, herbicidal effect grade” value in the series on Galium spurium was 0 (Herbicidal ratio of 5% or lower (almost no effect)). Moreover, in the series with Veronica persica, the “R: Veronica persica, herbicidal effect grade” value is given as 0 (Herbicidal ratio of 5% or lower (almost no effect)). The “d: soybean, effect on crop grade” value with soybean [6] is recorded as 0 (Herbicidal ratio of 5% or lower (almost no effect)). Also, the “e: wheat, effect on crop grade” value with wheat [7] is 0 (Herbicidal ratio of 5% or lower (almost no effect)). Besides, the “f: beet, effect on crop grade” value with beet is on record as 0 (Herbicidal ratio of 5% or lower (almost no effect)).
